Structures are written as SMILES. A value given as a limit tells only on which side of the number the result lay.

The results in this text go back to patent US10961198B2, “Farnesoid X receptor agonists and uses thereof” (Metacrine, Inc., priority 2017, dated 2021).

Sequence of hFXR (Q96RI1 whole entry): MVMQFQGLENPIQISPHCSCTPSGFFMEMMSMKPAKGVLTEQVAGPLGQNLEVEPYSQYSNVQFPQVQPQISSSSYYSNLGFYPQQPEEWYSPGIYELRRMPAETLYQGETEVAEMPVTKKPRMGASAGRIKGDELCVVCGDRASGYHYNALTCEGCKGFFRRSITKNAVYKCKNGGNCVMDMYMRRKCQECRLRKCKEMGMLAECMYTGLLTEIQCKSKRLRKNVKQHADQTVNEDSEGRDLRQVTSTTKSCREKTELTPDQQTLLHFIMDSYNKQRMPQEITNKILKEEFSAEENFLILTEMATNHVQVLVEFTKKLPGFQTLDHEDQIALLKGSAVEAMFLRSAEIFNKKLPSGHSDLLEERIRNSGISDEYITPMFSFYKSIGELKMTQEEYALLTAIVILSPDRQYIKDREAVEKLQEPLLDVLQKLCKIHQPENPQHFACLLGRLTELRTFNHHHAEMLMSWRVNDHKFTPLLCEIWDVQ
Sequence of hFXR (P19793 whole entry partner): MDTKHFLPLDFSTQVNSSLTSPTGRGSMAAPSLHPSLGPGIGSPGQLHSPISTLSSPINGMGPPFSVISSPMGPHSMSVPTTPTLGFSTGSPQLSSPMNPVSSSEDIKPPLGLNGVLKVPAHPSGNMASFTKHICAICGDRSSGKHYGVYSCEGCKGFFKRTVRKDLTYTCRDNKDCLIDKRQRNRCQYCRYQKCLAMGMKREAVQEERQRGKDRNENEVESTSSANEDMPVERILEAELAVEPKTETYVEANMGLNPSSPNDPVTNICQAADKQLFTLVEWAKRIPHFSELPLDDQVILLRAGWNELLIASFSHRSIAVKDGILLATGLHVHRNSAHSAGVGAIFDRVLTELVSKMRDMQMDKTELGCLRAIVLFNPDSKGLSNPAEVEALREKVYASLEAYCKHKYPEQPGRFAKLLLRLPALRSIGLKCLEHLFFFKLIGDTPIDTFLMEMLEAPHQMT

The test has as its target hFXR (Homo sapiens (Human), UniProt Q96RI1). The test can be described thus: In Vitro FXR Assay (TK). It is filed as cell-based. The note with it: CV-1 cells transfected with hFXR, hRXR, TK-ECRE-luc and pCMX-YFP; incubated 18 hrs; luminescence; maximum efficacy <25% of the Fexarmine control classified as '+'. As to the method:
Example B-1: In Vitro FXR Assay (TK)
CV-1 cells were seeded at a density of 2,000,000 cells in a T175 flask with DMEM+10% charcoal double-stripped FBS and incubated at 37° C. in 5% CO2 for 18 h (O/N).
After 18 h of incubation, the medium in the T175 flask was changed with fresh DMEM+10% charcoal super-stripped serum. In a polypropylene tube, 2500 μL OptiMEM (Life Technologies, Cat #31985-062) was combined with expression plasmids for hFXR, hRXR, TK-ECRE-luc and pCMX-YFP. The tube was then briefly vortexed and incubated at room temperature for 5 minutes. Transfection reagent (X-tremeGENE HP from Roche, Cat #06 366 236 001) was added to the OptiMEM/plasmid mixture vortexed and incubated at room temperature for 20 minutes. Following incubation, the transfection reagent/DNA mixture complex was added to cells in the T175 flask and the cells were incubated at 37° C. in 5% CO2 for 18 h (O/N).
Compounds were serially diluted in DMSO and added to transfected CV-1 cells. The cells were then incubated for 18 hrs. The next day cells were lysed and examined for luminescence.
In the case of `COc1ccc([C@H]2CC[C@H](CN(c3cc(-c4cnn(C5CC5)c4)ccn3)C(=O)[C@H]3CC[C@H](O)CC3)CC2)cc1C#N` [Compound 5.13, trans-N-((trans-4-(3-Cyano-4-methoxyphenyl)cyclohexyl)methyl)-N-(4-(1-cyclopropyl-1H-pyrazol-4-yl)pyridin-2-yl)-4-hydroxycyclohexanecarboxamide], the EC50 was not above 250 nM.

As for `COc1ccc([C@H]2CC[C@H](CN(c3cc(-c4cnn(C(C)C)c4)ccn3)C(=O)[C@H]3CC[C@H](O)CC3)CC2)cc1C#N` [Compound 5.14, trans-N-((trans-4-(3-Cyano-4-methoxyphenyl)cyclohexyl)methyl)-4-hydroxy-N-(4-(1-isopropyl-1H-pyrazol-4-yl)pyridin-2-yl)cyclohexanecarboxamide], the EC50 was not above 250 nM.

Take `COc1ccc([C@H]2CC[C@H](CN(c3cccc(-c4cnn(C(C)(C)C)c4)c3)C(=O)[C@H]3CC[C@H](O)CC3)CC2)nc1C` [Compound 5.15, trans-N-(3-(1-(tert-Butyl)-1H-pyrazol-4-yl)phenyl)-4-hydroxy-N-((trans-4-(5-methoxy-6-methylpyridin-2-yl)cyclohexyl)methyl)cyclohexanecarboxamide]: the EC50 was not above 250 nM.

In the case of `CCn1cc([C@H]2CC[C@H](CN(c3cccc(-c4cnn(C5CC5)c4)c3)C(=O)[C@H]3CC[C@H](O)CC3)CC2)cn1` [Compound 5.16, trans-N-(3-(1-Cyclopropyl-1H-pyrazol-4-yl)phenyl)-N-((trans-4-(1-ethyl-1H-pyrazol-4-yl)cyclohexyl)methyl)-4-hydroxycyclohexanecarboxamide], the EC50 was 250 to 1000 nM.

In turn, `COc1ccc([C@H]2CC[C@H](CN(c3cccc(-c4cnn(C5CCC5)c4)c3)C(=O)[C@H]3CC[C@H](O)CC3)CC2)nc1C` [Compound 5.17, trans-N-(3-(1-Cyclobutyl-1H-pyrazol-4-yl)phenyl)-4-hydroxy-N-((trans-4-(5-methoxy-6-methylpyridin-2-yl)cyclohexyl)methyl)cyclohexanecarboxamide] yielded an EC50 not above 250 nM.

The compound `COc1cnc([C@H]2CC[C@H](CN(c3cccc(-c4cnn(C5CC5)c4)c3)C(=O)[C@H]3CC[C@H](O)CC3)CC2)cc1C` [Compound 5.18, trans-N-(3-(1-Cyclopropyl-1H-pyrazol-4-yl)phenyl)-4-hydroxy-N-((trans-4-(5-methoxy-4-methylpyridin-2-yl)cyclohexyl)methyl)cyclohexanecarboxamide] had an EC50 of 250 to 1000 nM.

On to `COc1ccc([C@H]2CC[C@H](CN(c3cc(-c4cnn(C(C)C)c4)ccn3)C(=O)[C@H]3CC[C@H](O)CC3)CC2)nc1C` [Compound 5.19, trans-4-Hydroxy-N-(4-(1-isopropyl-1H-pyrazol-4-yl)pyridin-2-yl)-N-((trans-4-(5-methoxy-6-methylpyridin-2-yl)cyclohexyl)methyl)cyclohexanecarboxamide], for which the EC50 was not above 250 nM.

In the case of `COc1ccc([C@H]2CC[C@H](CN(c3cc(-c4cnn(C(C)C)c4)ccn3)C(=O)[C@H]3CC[C@H](O)CC3)CC2)nc1C#N` [Compound 5.20, trans-N-((trans-4-(6-Cyano-5-methoxypyridin-2-yl)cyclohexyl)methyl)-4-hydroxy-N-(4-(1-isopropyl-1H-pyrazol-4-yl)pyridin-2-yl)cyclohexanecarboxamide], the EC50 fell in the range of 250 to 1000 nM.

`Cn1ccc2cc([C@H]3CC[C@H](CN(c4cccc(-c5cnn(C6CC6)c5)c4)C(=O)[C@H]4CC[C@H](O)CC4)CC3)ncc21` [Compound 5.21, trans-N-(3-(1-Cyclopropyl-1H-pyrazol-4-yl)phenyl)-4-hydroxy-N-((trans-4-(1-methyl-1H-pyrrolo[2,3-c]pyridin-5-yl)cyclohexyl)methyl)cyclohexanecarboxamide] gave an EC50 not below 1000 nM.

With `COc1ccc([C@H]2CC[C@H](CN(c3cc(-c4cnn(C5CC5)c4)ccn3)C(=O)[C@H]3CC[C@H](O)CC3)CC2)nc1C#N` [Compound 5.22, trans-N-((trans-4-(6-Cyano-5-methoxypyridin-2-yl)cyclohexyl)methyl)-N-(4-(1-cyclopropyl-1H-pyrazol-4-yl)pyridin-2-yl)-4-hydroxycyclohexanecarboxamide], the EC50 fell in the range of 250 to 1000 nM.

In the case of `COc1ccc([C@H]2CC[C@H](CN(c3cccc(-c4cnn(C(C)C)c4)c3)C(=O)[C@H]3CC[C@H](O)CC3)CC2)nc1C#N` [Compound 5.23, trans-N-((trans-4-(6-Cyano-5-methoxypyridin-2-yl)cyclohexyl)methyl)-4-hydroxy-N-(3-(1-isopropyl-1H-pyrazol-4-yl)phenyl)cyclohexanecarboxamide], the EC50 is not above 250 nM.

Compound `COc1ccc([C@H]2CC[C@H](CN(C(=O)C3CCCCC3)c3cccc(-c4cnn(C5CC5)c4)c3)CC2)cc1C` [Compound 5.24, N-(3-(1-Cyclopropyl-1H-pyrazol-4-yl)phenyl)-N-((trans-4-(4-methoxy-3-methylphenyl)cyclohexyl)methyl)cyclohexanecarboxamide] showed an EC50 not above 250 nM.

The compound `COc1ccc(C2CCC(CN(c3cccc(-c4cnn(C5CC5)c4)c3)C(=O)[C@H]3CC[C@@H](O)CC3)CC2)cc1C` (stereo partly drawn) [Compound 5.25, cis-N-(3-(1-Cyclopropyl-1H-pyrazol-4-yl)phenyl)-4-hydroxy-N-((4-(4-methoxy-3-methylphenyl)cyclohexyl)methyl)cyclohexanecarboxamide] had an EC50 not above 250 nM.

`COc1ccc([C@H]2CC[C@H](CN(c3cc(-c4cnn(C5CC5)c4)cc(C)n3)C(=O)[C@H]3CC[C@H](O)CC3)CC2)cc1C` [Compound 5.26, trans-N-(4-(1-cyclopropyl-1H-pyrazol-4-yl)-6-methylpyridin-2-yl)-4-hydroxy-N-((trans-4-(4-methoxy-3-methylphenyl)cyclohexyl)methyl)cyclohexanecarboxamide] showed an EC50 of 250 to 1000 nM.

With `COc1ccc([C@H]2CC[C@H](CN(c3cccc(-c4cnn(C(C)C)c4)c3)C(=O)[C@H]3CC[C@](C)(O)CC3)CC2)cc1C` [Compound 5.27, (1r,4r)-4-Hydroxy-N-(3-(1-isopropyl-1H-pyrazol-4-yl)phenyl)-N-((trans-4-(4-methoxy-3-methylphenyl)cyclohexyl)methyl)-4-methylcyclohexanecarboxamide], the EC50 is not above 250 nM.

`COc1ccc([C@H]2CC[C@H](CN(c3cccc(-c4cnn(C(C)C)c4)c3)C(=O)[C@H]3CC[C@@](C)(O)CC3)CC2)cc1C` [Compound 5.28, (1s, 4s)-4-Hydroxy-N-(3-(1-isopropyl-1H-pyrazol-4-yl)phenyl)-N-((trans-4-(4-methoxy-3-methylphenyl)cyclohexyl)methyl)-4-methylcyclohexanecarboxamide] had an EC50 not above 250 nM.

`COc1ncc([C@H]2CC[C@H](CN(c3cc(-c4cnn(C(C)C)c4)ccn3)C(=O)[C@H]3CC[C@H](O)CC3)CC2)cc1C` [Compound 5.29, trans-4-Hydroxy-N-(4-(1-Isopropyl-1H-pyrazol-4-yl)pyridin-2-yl)-N-((trans-4-(6-methoxy-5-methylpyridin-3-yl)cyclohexyl)methyl)cyclohexanecarboxamide] displayed an EC50 not above 250 nM.

`COc1ncc([C@H]2CC[C@H](CN(c3cc(-c4cnn(C(C)C)c4)ccn3)C(=O)[C@H]3CC[C@H](O)CC3)CC2)cc1Cl` [Compound 5.30, trans-N-((trans-4-(5-Chloro-6-methoxypyridin-3-yl)cyclohexyl)methyl)-4-hydroxy-N-(4-(1-isopropyl-1H-pyrazol-4-yl)pyridin-2-yl)cyclohexanecarboxamide] yielded an EC50 not above 250 nM.

As to `COc1ccc(C23CCC(CN(c4cccc(-c5cnn(C6CC6)c5)c4)C(=O)[C@H]4CC[C@H](O)CC4)(CC2)CC3)cc1C` [Compound 6, trans-N-(3-(1-Cyclopropyl-1H-pyrazol-4-yl)phenyl)-4-hydroxy-N-((4-(4-methoxy-3-methylphenyl)bicyclo[2.2.2]octan-1-yl)methyl)cyclohexanecarboxamide], the EC50 was not above 250 nM.

On to `CN(C)c1ccc(C23CCC(CN(c4cccc(-c5cnn(C6CC6)c5)c4)C(=O)[C@H]4CC[C@H](O)CC4)(CC2)CC3)cn1` [Compound 6.01, trans-N-(3-(1-Cyclopropyl-1H-pyrazol-4-yl)phenyl)-N-((4-(6-(dimethylamino)pyridin-3-yl)bicyclo[2.2.2]octan-1-yl)methyl)-4-hydroxycyclohexanecarboxamide], for which the EC50 is not above 250 nM.

As to `COc1ccc(C23CCC(CN(c4cccc(-c5cnn(C(C)C)c5)c4)C(=O)[C@H]4CC[C@H](O)CC4)(CC2)CC3)cc1C` [Compound 6.02, trans-4-Hydroxy-N-(3-(1-isopropyl-1H-pyrazol-4-yl)phenyl)-N-((4-(4-methoxy-3-methylphenyl)bicyclo[2.2.2]octan-1-yl)methyl)cyclohexanecarboxamide], the EC50 was not above 250 nM.

For the compound `COc1ccc([C@H]2CC[C@H](CN(c3cccc(-c4cnn(C(C)C)c4)c3)C(=O)[C@H]3CC[C@H](N)CC3)CC2)cc1C` [Compound 7, trans-4-Amino-N-(3-(1-isopropyl-1H-pyrazol-4-yl)phenyl)-N-((trans-4-(4-methoxy-3-methylphenyl)cyclohexyl)methyl)cyclohexanecarboxamide], the EC50 is not below 1000 nM.

For the compound `COc1ccc(C23CCC(CN(c4cccc(-c5cnn(C6CC6)c5)c4)C(=O)[C@H]4CC[C@H](N)CC4)(CC2)CC3)cc1C` [Compound 7.01, trans-4-Amino-N-(3-(1-cyclopropyl-1H-pyrazol-4-yl)phenyl)-N-((4-(4-methoxy-3-methylphenyl)bicyclo[2.2.2]octan-1-yl)methyl)cyclohexanecarboxamide], the EC50 was 250 to 1000 nM.

Broadly, the EC50 is the concentration that produces a half-maximal response. High values mean a less potent agent, low ones a more potent agent.
